Experimental data taken from patent publication US20200222474A1, “COMPOSITIONS AND METHODS FOR INCREASING PHYTOCHEMICAL BIOAVAILABLITY AND BIOACTIVITY” (North Carolina State University, priority 2017, published 2020).

Test system: L. acidophilus NCFM
Assay: RNA-seq transcriptional analysis of L. acidophilus NCFM growing on plant glycosides
Format: cell-based, Lactobacillus acidophilus
[1] = gene LBA0282 (Hypothetical protein)
[2] = gene LBA0327 (Replication protein)
[3] = gene LBA0328 (Hypothetical protein)
[4] = gene LBA0330 (Hypothetical protein)
[5] = gene LBA0457 (Hypothetical protein)
[6] = gene LBA0485 (Hypothetical protein)
[7] = gene LBA0486 (Hypothetical protein)
[8] = gene LBA0487 (Hypothetical protein.)
[9] = gene LBA0492 (Hypothetical protein)
[10] = gene LBA0541 (Cadmium-transporting ATPase)
[11] = gene LBA0542 (Putative heavy-metal-transporting alpase)
[12] = gene LBA0543 (Hypothetical protein)
[13] = gene LBA0544 (Transcriptional regulator)
[14] = gene LBA0555 (Myosin-crossreactive antigen)
[15] = gene LBA0564 (HAD family hydrolase)
[16] = gene LBA0574 (ABC multi drug exporter)
[17] = gene LBA0575 (ABC multi drug exporter)
[18] = gene LBA0604 (Immunity protein)
[19] = gene LBA0605 (Putative hydrolase)
[20] = gene LBA0608 (Hypothetical protein)
[21] = gene LBA0631 (Hypothetical protein)
[22] = gene LBA0649 (Myosin-crossreactive antigen)
[23] = gene LBA0728 (Hypothetical protein LBA0728)
[24] = gene LBA1025 (Aldo/keto reductase family oxidoreductase)
[25] = gene LBA1026 (Aldo/keto reduetase family oxidoreductase)
[26] = gene LBA1206 (Hypothetical protein)
[27] = gene LBA1401 (Peroxidase (Npx))
[28] = gene LBA1435 (Hypothetical protein)
[29] = gene LBA1455 (Putative surface layer protein)
[30] = gene LBA1469 (UDP-glucose 4-epimerase)
[31] = gene LBA1656 (Hypothetical protein)
[32] = gene LBA1675 (Hypothetical protein)
[33] = gene LBA1676 (ATP-dependent helicase)
[34] = gene LBA1683 (Putative magnesium-transporting atpase)
[35] = gene LBA1704 (N-Acetylmuramic acid-6-phosphate etherase)
[36] = gene LBA1740 (Hypothetical protein)
[37] = gene LBA1752 (Hypothetical protein)
[38] = gene LBA1769 (Hypothetical protein)
[39] = gene LBA1793 (Hypothetical protein)
[40] = gene LBA1869 (Beta-phosphoglueomutase)
[41] = gene LBA1895 (Hypothetical protein)
[42] = nTPM on plant glycoside relative to glucose, mid-exponential phase

O=c1ccc2cc(O[C@@H]3O[C@H](CO)[C@@H](O)[C@H](O)[C@H]3O)c(O)cc2o1 [Esculin]
Log2 differential normalized TPM ratio compared to glucose [1]: 2.1 | Log2 differential normalized TPM ratio compared to lactose [1]: 1.4 | Transcripts per million (rpm) [1]: 92.4 rpm | Log2 differential normalized TPM ratio compared to glucose [2]: 2.4 | Log2 differential normalized TPM ratio compared to lactose [2]: 2.1 | Transcripts per million (rpm) [2]: 43.4 rpm | Log2 differential normalized TPM ratio compared to glucose [3]: 1.9 | Log2 differential normalized TPM ratio compared to lactose [3]: 2 | Transcripts per million (rpm) [3]: 55.9 rpm | Log2 differential normalized TPM ratio compared to glucose [4]: 3.3 | Log2 differential normalized TPM ratio compared to lactose [4]: 2.9 | Transcripts per million (rpm) [4]: 211.2 rpm | Log2 differential normalized TPM ratio compared to glucose [5]: 2.1 | Log2 differential normalized TPM ratio compared to lactose [5]: 1.1 | Transcripts per million (rpm) [5]: 2243.1 rpm | Log2 differential normalized TPM ratio compared to glucose [6]: 2 | Log2 differential normalized TPM ratio compared to lactose [6]: −0.4 | Transcripts per million (rpm) [6]: 868.4 rpm | Log2 differential normalized TPM ratio compared to glucose [7]: 2.3 | Log2 differential normalized TPM ratio compared to lactose [7]: −0.5 | Transcripts per million (rpm) [7]: 1210.2 rpm | Log2 differential normalized TPM ratio compared to glucose [8]: 1 | Log2 differential normalized TPM ratio compared to lactose [8]: −0.3 | Transcripts per million (rpm) [8]: 69.1 rpm | Log2 differential normalized TPM ratio compared to glucose [9]: 3.7 | Log2 differential normalized TPM ratio compared to lactose [9]: 1.2 | Transcripts per million (rpm) [9]: 108.4 rpm | Log2 differential normalized TPM ratio compared to glucose [10]: 1.9 | Log2 differential normalized TPM ratio compared to lactose [10]: −0.3 | Transcripts per million (rpm) [10]: 138.8 rpm | Log2 differential normalized TPM ratio compared to glucose [11]: 1.9 | Log2 differential normalized TPM ratio compared to lactose [11]: −0.3 | Transcripts per million (rpm) [11]: 337.4 rpm | Log2 differential normalized TPM ratio compared to glucose [12]: 2 | Log2 differential normalized TPM ratio compared to lactose [12]: −0.4 | Transcripts per million (rpm) [12]: 278.7 rpm | Log2 differential normalized TPM ratio compared to glucose [13]: 1.6 | Log2 differential normalized TPM ratio compared to lactose [13]: −0.3 | Transcripts per million (rpm) [13]: 342.2 rpm | Log2 differential normalized TPM ratio compared to glucose [14]: 2 | Log2 differential normalized TPM ratio compared to lactose [14]: 0.1 | Transcripts per million (rpm) [14]: 186.9 rpm | Log2 differential normalized TPM ratio compared to glucose [15]: 1.4 | Log2 differential normalized TPM ratio compared to lactose [15]: 0.9 | Transcripts per million (rpm) [15]: 2.8 rpm | Log2 differential normalized TPM ratio compared to glucose [16]: 2.4 | Log2 differential normalized TPM ratio compared to lactose [16]: 2.1 | Transcripts per million (rpm) [16]: 490.6 rpm | Log2 differential normalized TPM ratio compared to glucose [17]: 2.2 | Log2 differential normalized TPM ratio compared to lactose [17]: 2 | Transcripts per million (rpm) [17]: 381 rpm | Log2 differential normalized TPM ratio compared to glucose [18]: −0.3 | Log2 differential normalized TPM ratio compared to lactose [18]: −0.8 | Transcripts per million (rpm) [18]: 12.5 rpm | Log2 differential normalized TPM ratio compared to glucose [19]: 2.4 | Log2 differential normalized TPM ratio compared to lactose [19]: 1.4 | Transcripts per million (rpm) [19]: 15.5 rpm | Log2 differential normalized TPM ratio compared to glucose [20]: 2.3 | Log2 differential normalized TPM ratio compared to lactose [20]: 1.2 | Transcripts per million (rpm) [20]: 183.9 rpm | Log2 differential normalized TPM ratio compared to glucose [21]: 2.9 | Log2 differential normalized TPM ratio compared to lactose [21]: −0.2 | Transcripts per million (rpm) [21]: 9527.2 rpm | Log2 differential normalized TPM ratio compared to glucose [22]: 1.9 | Log2 differential normalized TPM ratio compared to lactose [22]: 1.2 | Transcripts per million (rpm) [22]: 154.8 rpm | Log2 differential normalized TPM ratio compared to glucose [23]: 4.8 | Log2 differential normalized TPM ratio compared to lactose [23]: 3 | Transcripts per million (rpm) [23]: 70.6 rpm | Log2 differential normalized TPM ratio compared to glucose (gene LBA0861 (Polyferredoxin)): 2 | Log2 differential normalized TPM ratio compared to lactose (gene LBA0861 (Polyferredoxin)): 1.5 | Transcripts per million (rpm) (gene LBA0861 (Polyferredoxin)): 785.8 rpm | Log2 differential normalized TPM ratio compared to glucose (gene LBA1023 (Oxidoreductase)): 2.3 | Log2 differential normalized TPM ratio compared to lactose (gene LBA1023 (Oxidoreductase)): 2 | Transcripts per million (rpm) (gene LBA1023 (Oxidoreductase)): 911.4 rpm | Log2 differential normalized TPM ratio compared to glucose [24]: 2.7 | Log2 differential normalized TPM ratio compared to lactose [24]: 2.7 | Transcripts per million (rpm) [24]: 210.8 rpm | Log2 differential normalized TPM ratio compared to glucose [25]: 2.3 | Log2 differential normalized TPM ratio compared to lactose [25]: 1.9 | Transcripts per million (rpm) [25]: 162.5 rpm | Log2 differential normalized TPM ratio compared to glucose (gene LBA1027 (Oxidoreductase)): 2.1 | Log2 differential normalized TPM ratio compared to lactose (gene LBA1027 (Oxidoreductase)): 0.6 | Transcripts per million (rpm) (gene LBA1027 (Oxidoreductase)): 2680.9 rpm | Log2 differential normalized TPM ratio compared to glucose [26]: 2.2 | Log2 differential normalized TPM ratio compared to lactose [26]: 1 | Transcripts per million (rpm) [26]: 636.7 rpm | Log2 differential normalized TPM ratio compared to glucose [27]: 3.1 | Log2 differential normalized TPM ratio compared to lactose [27]: 1 | Transcripts per million (rpm) [27]: 609.8 rpm | Log2 differential normalized TPM ratio compared to glucose [28]: 5 | Log2 differential normalized TPM ratio compared to lactose [28]: 1.3 | Transcripts per million (rpm) [28]: 142.3 rpm | Log2 differential normalized TPM ratio compared to glucose [29]: 0.7 | Log2 differential normalized TPM ratio compared to lactose [29]: −0.9 | Transcripts per million (rpm) [29]: 28.7 rpm | Log2 differential normalized TPM ratio compared to glucose [30]: 2.1 | Log2 differential normalized TPM ratio compared to lactose [30]: −2.9 | Transcripts per million (rpm) [30]: 385 rpm | Log2 differential normalized TPM ratio compared to glucose [31]: 1.2 | Log2 differential normalized TPM ratio compared to lactose [31]: 0.6 | Transcripts per million (rpm) [31]: 48.5 rpm | Log2 differential normalized TPM ratio compared to glucose [32]: 2.2 | Log2 differential normalized TPM ratio compared to lactose [32]: 0.8 | Transcripts per million (rpm) [32]: 1975.8 rpm | Log2 differential normalized TPM ratio compared to glucose [33]: 2 | Log2 differential normalized TPM ratio compared to lactose [33]: 0.8 | Transcripts per million (rpm) [33]: 1361.3 rpm | Log2 differential normalized TPM ratio compared to glucose [34]: 0.3 | Log2 differential normalized TPM ratio compared to lactose [34]: 0.5 | Transcripts per million (rpm) [34]: 20.5 rpm | Log2 differential normalized TPM ratio compared to glucose [35]: 1.6 | Log2 differential normalized TPM ratio compared to lactose [35]: 0.9 | Transcripts per million (rpm) [35]: 21.2 rpm | Log2 differential normalized TPM ratio compared to glucose [36]: 2.4 | Log2 differential normalized TPM ratio compared to lactose [36]: 1.6 | Transcripts per million (rpm) [36]: 95.9 rpm | Log2 differential normalized TPM ratio compared to glucose [37]: 2.3 | Log2 differential normalized TPM ratio compared to lactose [37]: 1.4 | Transcripts per million (rpm) [37]: 42.9 rpm | Log2 differential normalized TPM ratio compared to glucose [38]: 1.9 | Log2 differential normalized TPM ratio compared to lactose [38]: 0 | Transcripts per million (rpm) [38]: 6023.9 rpm | Log2 differential normalized TPM ratio compared to glucose [39]: 0.7 | Log2 differential normalized TPM ratio compared to lactose [39]: −2.1 | Transcripts per million (rpm) [39]: 28.5 rpm | Log2 differential normalized TPM ratio compared to glucose (gene LBA1796 (ABC exporter)): 1.9 | Log2 differential normalized TPM ratio compared to lactose (gene LBA1796 (ABC exporter)): −0.6 | Transcripts per million (rpm) (gene LBA1796 (ABC exporter)): 35.2 rpm | Log2 differential normalized TPM ratio compared to glucose [40]: 4.2 | Log2 differential normalized TPM ratio compared to lactose [40]: 1.8 | Transcripts per million (rpm) [40]: 156.4 rpm | Log2 differential normalized TPM ratio compared to glucose [41]: 1.4 | Log2 differential normalized TPM ratio compared to lactose [41]: 1.2 | Transcripts per million (rpm) [41]: 74.5 rpm | Log2 Ratio vs Glc, LBA0225 Phospho-β-glucosidase (GH1) [42]: −0.2 | Log2 Ratio vs Glc, LBA0227 PTS EIIC [42]: 0.8 | Log2 Ratio vs Glc, LBA0228 Transcriptional regulator [42]: 0.9 | Log2 Ratio vs Glc, LBA0466 Phosphoenolpyruvate carboxykinase (ATP) [42]: 2 | Log2 Ratio vs Glc, LBA0491 PTS EIIC [42]: 3.4 | Log2 Ratio vs Glc, LBA0492 Hypothetical protein [42]: 3.7 | Log2 Ratio vs Glc, LBA0555 Myosin-cross-reactive antigen/Fatty acid hydratase [42]: 2 | Log2 Ratio vs Glc, LBA0606 PTS EIIBC [42]: 2.8 | Log2 Ratio vs Glc, LBA0631 Hypothetical protein [42]: 2.9 | Log2 Ratio vs Glc, LBA0724 Transcriptional regulator (antiterminator) [42]: 5.5 | Log2 Ratio vs Glc, LBA0725 PTS EIICBA [42]: 9.8 | Log2 Ratio vs Glc, LBA0726 Phospho-β-glucosidase (GH1) [42]: 6.9 | Log2 Ratio vs Glc, LBA0728 Hypothetical protein [42]: 4.8 | Log2 Ratio vs Glc, LBA0876 PTS EIIC [42]: 2.9 | Log2 Ratio vs Glc, LBA0877 PTS EIIA [42]: 3 | Log2 Ratio vs Glc, LBA1401 Peroxidase (Npx) [42]: 3.1 | Log2 Ratio vs Glc, LBA1411 Fumarate reductase flavoprotein subunit [42]: 1.7 | Log2 Ratio vs Glc, LBA1433 Dihydroxyacetone kinase [42]: 3.7 | Log2 Ratio vs Glc, LBA1434 Dihydroxyacetone kinase [42]: 4.5 | Log2 Ratio vs Glc, LBA1435 Hypothetical protein [42]: 5 | Log2 Ratio vs Glc, LBA1436 Glycerol uptake facilitator protein [42]: 4.9 | Log2 Ratio vs Glc, LBA1632 NAD-dependent aldehyde dehydrogenase [42]: 3.3 | Log2 Ratio vs Glc, LBA1684 PTS EIIA [42]: 2.9 | Log2 Ratio vs Glc, LBA1689 Maltose-6′-phosphate glucosidase (GH4) [42]: 1.8 | Log2 Ratio vs Glc, LBA1701 Melibiose operon regulatory protein [42]: 4.9 | Log2 Ratio vs Glc, LBA1709 Mucus binding protein precursor [42]: 3.6 | Log2 Ratio vs Glc, LBA1797 Hypothetical protein [42]: 2.6 | Log2 Ratio vs Glc, LBA1812 α-Glucosidase II (GH31) [42]: 2.8 | Log2 Ratio vs Glc, LBA1869 β-Phosphoglucomutase [42]: 4.2 | Log2 Ratio vs Glc, LBA1871 Neopullulanase (GH13) [42]: 2.1 | Log2 Ratio vs Glc, LBA1873 Acetate kinase [42]: 0.8 | Log2 Ratio vs Glc, LBA1974 Pyruvate oxidase [42]: 3.6
